According to patent US20190374158A1, “SYSTEM AND METHOD FOR MONITORING AND CONTROLLING A STATE OF A PATIENT DURING AND AFTER ADMINISTRATION OF […]” (The General Hospital Corporation, priority 2012, published 2019):

Key:
burst suppression [1] = conditions: patient after propofol bolus induction
Source text: Typically, in the operating room, a bolus dose of an anesthetic is rapidly administered to induce general anesthesia. It is often the case that the patient enters burst suppression within seconds and might remain in that state for several minutes. Since the efficiency of the drug depends on several empirical factors, it is relevant to monitor the level of suppression that is reached and its trajectory, which may help detect any anomaly, or tune the subsequent doses or levels of anesthesia.
The EEG was recorded from a scalp electrode at the FP1 site referenced to the FZ electrode of the standard electrode configuration. […] The choice of Δ=250 corresponds to a resolution of one second as in the previous case.

[2] = two-compartment pharmacokinetics model estimation, rat models; parameters: species or system rats; conditions: for σ scaling factor of infusion rate: rat two-compartment model; for K12 rate constant: rat two-compartment model fit to Vijn and Sneyd BSR time courses after 10-second bolus (8 mg kg^−1 propofol, 3.5 mg kg^−1 etomidate)
Source text: In one clinical application, the control target may be to achieve and maintain a target BSR corresponding to medical coma, thereby maintaining an equilibrium effect-site concentration. To design a suitable but not overly-complex model, it may be assumed that, due to the time lag between central compartment drug infusion and effect-site concentration increase, there must be at least two compartments to accurately model the evolution of the drug concentrations. Such a simplified two-compartment model is composed of the central plasma compartment and the auxiliary effect-site compartment connected by a first-order transfer process, ignoring any other peripheral drug distribution compartments.
The pharmacokinetic model in FIG. 9A can be described by the second-order linear differential equation system: […]
for an infusion rate of ut, in units of μg/s, scaled by a factor of σ. The kinetic rate constants k12 and k21 govern the drug flow between compartments, while the rate constant k10 determines the rate of the drug's clearance from the central compartment. The slow peripheral compartment and fast peripheral compartment, common in many population models, are not included.
These estimated parameters were used to design the closed-loop controller (see below) in order to yield a critically damped system response, that is, the fastest rise times without overshoot.
For the human models, existing population pharmacokinetic models were calibrated for a 180-cm, 70-kg person. […] Since a patient may not enter a state of burst suppression the instant the effect-site concentration is nonzero, the concentration trace was shifted negatively and transformed to pt such that the patient peaked at a BSP of 0.7, and came out of burst suppression 7 minutes after the initiation of the dose. […] Anesthesiology 65: 19-27, which is incorporated herein by reference, was used to numerically evaluate the effect-site concentration during and after a 10-second bolus of […].
Matlab's Optimization Toolbox was used to optimize these four parameters of the pharmacokinetic model to minimize this mean squared error, and yield an estimate of the best-fit rate constants and scaling factor.

burst suppression [3] = test: physostigmine effect on stable burst suppression, rat EEG; type: in vivo, Sprague-Dawley rat; conditions: rat deeply anesthetized with 2% isoflurane
Source text: The following description is with respect to an analysis of a rat under general anesthesia-induced burst suppression The BSP is compared to the BSR in order to illustrate its benefits. For the experiments described herein, signals were first band pass filtered between 5 and 30 Hz. The filtered signals were thresholded and suppression segments less than 500 milliseconds in duration were switched to 1. The binary series was then provided as an input to the BSP algorithm.
The BSP algorithm was evaluated on a rat EEG signal recorded to test whether physostigmine, a cholinergic agonist hypothesized to increase arousal, causes the burst suppression pattern observed during deep anesthesia to switch into continuous activity (associated with increased arousal). In this experiment, it is advantageous to know whether physostigmine, and not saline (control), induces a shift from burst suppression (deep anesthesia) to a delta wave pattern (lighter anesthesia). In case it does, it is desirable characterize the temporal dynamics of that change.
A rat pre-implanted with extradural EEG electrodes was deeply anesthetized with 2% isoflurane. After stabilization of the inhaled concentration, the EEG signal, was recorded for 10 minutes prior to a saline intravenous injection (control). Six minutes later, physostigmine was injected and the recording was maintained for an additional thirty minutes. […]

[4] = system: dopaminergic arousal pathway; conditions: cited from earlier work
[5] = rat two-compartment model fit to Vijn and Sneyd BSR time courses after 10-second bolus

Source text for alpha (8-13 Hz) power: 14 patients were implanted with iEEG electrode arrays as part of standard clinical treatment for intractable epilepsy. The arrays included linear penetrating depth arrays having 6-8 electrodes, subdural grid arrays having 16-64 electrodes, and/or subdural strip arrays having 4-16 electrodes (Adtech Medical, Racine, Wis.) (FIG. 21). Surface EEG electrodes were additionally applied to six patients in a subset of the standard 10-20 EEG configuration. Electrode placement was selected by the patients' clinicians without regard to the current study. […] Recordings were obtained during electrode explant surgery that occurred after 1-3 weeks of inpatient monitoring to determine epileptogenic foci. Signal acquisition began prior to induction of general anesthesia and continued until the electrodes were disconnected for explant. EEG and iEEG signals were recorded with a sampling rate of a 2000, 500, or 250 Hz depending on settings of the hospital's clinical acquisition system. Signals were digitized with hardware amplifiers (XLTEK, Natus Medical, Inc., San Carlos, Calif.) that bandpassed between 0.3 Hz and the sampling rate, and were stored on a computer (Dell) for offline processing.
Drug protocols were selected by the patients' clinicians without regard to the current study.
Patients were delivered auditory stimuli through headphones (prerecorded words and the patient's name) approximately every 4 seconds during the task, and were instructed to respond with a button click. Responses were recorded using stimulus presentation software (Presentation, Neurobehavioral Systems, Inc., Albany, Calif., or EPrime, Psychology Software Tools, Inc., Sharpsburg, Pa.). […] This patient was excluded from group analyses of peri-LOC dynamics.
In each subject, two epochs were distinguished over the recording period. […] We used visual inspection to identify the postinduction epoch. […] Burst suppression intervals were excluded to avoid the confound of low-power suppression intervals in group analyses, which differed in total time across patients. […]

SMILES: CC(C)c1cccc(C(C)C)c1O [Propofol, 2,6-di-isopropylphenol]
- BSP reached after slow second increase (burst suppression [1]): around 0.7
- BSP, binary filter estimate, at minute 2 (burst suppression [1]): around 0.5
- BSP, binary filter estimate, decrease after minute 2 (burst suppression [1]): around 0.2
- BSP, smoother estimate, at minute 2 (burst suppression [1]): ~0.6
- BSP, smoother estimate, decrease after minute 2 (burst suppression [1]): ~0.1
- duration of burst suppression (burst suppression [1]): about 8 minutes
- σ scaling factor of infusion rate [2]: 0.5885
- K10 rate constant (clearance from central compartment) [2, 5]: 4.552 min⁻¹
- K21 rate constant [2, 5]: 0.9599 min⁻¹
- K12 rate constant [2]: 0.01557 min⁻¹
- time after LOC to abrupt suppression of alpha power (alpha (8-13 Hz) power; Patient 9, occipital and temporal channels): ≤ 10 s
- increase of median alpha power in the postinduction period (alpha (8-13 Hz) power; hippocampus, cingulate cortex, medial white matter electrodes): approximately 5 dB
- change of alpha power in the postinduction period (alpha (8-13 Hz) power; occipital, parietal, inferotemporal cortex and primary auditory cortex): consistently decreased

SMILES: CNC(=O)Oc1ccc2c(c1)[C@]1(C)CCN(C)[C@@H]1N2C [physostigmine]
- time out of suppression after injection (burst suppression [3]): around 10 minutes
- BSP after injection (burst suppression [3]; baseline BSP around 0.5): 0

SMILES: CCOC(=O)c1cncn1[C@H](C)c1ccccc1 [Etomidate]
- σ scaling factor of infusion rate [2]: 0.8394
- K21 rate constant [2, 5]: 0.6703 min⁻¹
- K12 rate constant [2]: 0.01547 min⁻¹

SMILES: COC(=O)C(c1ccccc1)C1CCCCN1 (centres unmarked) [methylphenidate]
- emergence from general anesthesia ([4]; isoflurane general anesthesia): actively induces emergence from isoflurane general anesthesia
- minute ventilation ([4]; plethysmography and blood gas experiments): increases minute ventilation
